Measured values reported in US12167999B2, “Anti-inflammatory and mydriatic intracameral solutions for inhibition of postoperative ocular inflammatory conditions” (Rayner Intraocular Lenses Limited, priority 2014, dated 2024).
Like-named read-outs stand apart in the source and are kept apart here.

What was measured:
[1] = Ocular tissue distribution of ketorolac after intracameral OMS302 during IOL replacement in dogs; assay type: in vivo, female beagles
Experimental: This example describes the results of an in vivo study in dogs to determine the concentrations of ketorolac in the retina and other ocular tissues following the intracameral administration of phenylephrine 1% and ketorolac 0.3% injection formulated as described in Table 1 (OMS302) during IOL replacement in dogs.
(§1) IOL replacement by phacoemulsification was performed on 20 female beagles. During the procedure, OMS302 was administered in BSS solution via irrigation and intracameral injection immediately post-procedure. The target dose level of ketorolac was 5.71 mg/eye, and the target dose volume of OMS302 diluted in BSS solution was […] per eye. Four animals per time point were sacrificed at 0, 2, 6, 8, and 10 hours post-procedure. Samples of blood and aqueous humor were collected. Enucleated eyes were frozen and dissected for collection of retina, retinal pigmented epithelium-choroid, cornea, iris-ciliary body, vitreous humor, sclera, and lens capsule. Tissue concentrations of ketorolac were quantitated using a liquid chromatography/mass spectrometry (LCMS) method. Using published IC50 values for cyclooxygenase (COX) inhibition by ketorolac (Waterbury, et. al., Curr Med Res Opin 22(6):1133-40 (2006)), estimates of percent inhibition were derived for each time point.

COX-1 [2] = assay: Estimated percent inhibition of COX-1 from tissue ketorolac concentrations in dogs; assay type: in vivo, female beagles; conditions: for estimated COX-1 inhibition: retina
Experimental: as §1

COX-2 [3] = assay: Estimated percent inhibition of COX-2 from tissue ketorolac concentrations in dogs; assay type: in vivo, female beagles; conditions: for estimated COX-2 inhibition: retina
Experimental: IOL replacement by phacoemulsification was performed on 20 female beagles. During the procedure, OMS302 was administered in BSS solution via irrigation and intracameral injection immediately post-procedure. […] Four animals per time point were sacrificed at 0, 2, 6, 8, and 10 hours post-procedure. Samples of blood and aqueous humor were collected. Enucleated eyes were frozen and dissected for collection of retina, retinal pigmented epithelium-choroid, cornea, iris-ciliary body, vitreous humor, sclera, and lens capsule. Tissue concentrations of ketorolac were quantitated using a liquid chromatography/mass spectrometry (LCMS) method.

[4] = human, in vivo
Text: Patients undergoing cataract extraction and lens replacement (CELR) were eligible. Written informed consent was obtained from 14 subjects, each of whom received topical ophthalmic ketorolac according to the surgeon's usual practice, beginning one day preoperatively. Immediately prior to the initial surgical incision, the surgeon withdrew a 100-μL sample of aqueous humor from the operative eye with a 30-gauge tuberculin syringe. At the conclusion of CELR prior to final re-inflation of the anterior chamber and wound closure, the surgeon withdrew another 100-μL sample from the anterior chamber. The ketorolac concentrations of the intracameral fluid samples were analyzed by an analytical laboratory.

COX-1 [5] = target: COX-1 (Homo sapiens, UniProt P23219); conditions: cited from earlier work
COX-2 [6] = target: T1, COX-2 (Homo sapiens, UniProt P35354); conditions: cited from earlier work
T1 sequence (P35354 18-604): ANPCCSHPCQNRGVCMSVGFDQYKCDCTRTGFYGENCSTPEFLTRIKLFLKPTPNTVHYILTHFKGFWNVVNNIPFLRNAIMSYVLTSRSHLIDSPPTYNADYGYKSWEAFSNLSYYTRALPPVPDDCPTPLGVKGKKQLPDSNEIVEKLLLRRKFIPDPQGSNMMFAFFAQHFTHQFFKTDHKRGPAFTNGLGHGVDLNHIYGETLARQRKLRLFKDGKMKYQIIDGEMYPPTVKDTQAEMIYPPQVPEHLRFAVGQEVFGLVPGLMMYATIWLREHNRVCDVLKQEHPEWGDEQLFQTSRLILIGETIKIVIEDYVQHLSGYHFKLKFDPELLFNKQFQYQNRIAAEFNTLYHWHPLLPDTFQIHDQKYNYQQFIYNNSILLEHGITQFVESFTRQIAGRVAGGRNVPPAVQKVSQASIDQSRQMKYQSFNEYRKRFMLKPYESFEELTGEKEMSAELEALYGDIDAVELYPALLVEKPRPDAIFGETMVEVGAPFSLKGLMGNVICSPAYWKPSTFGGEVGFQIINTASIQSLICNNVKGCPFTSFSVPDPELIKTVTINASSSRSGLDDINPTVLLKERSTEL

PGE2 production = conditions: ketorolac 0.45% compared to nepafenac 0.1% and bromfenac 0.09; cited from earlier work
[7] = aqueous humor, vitreous humor and RPE-choroid, t=8 hours
[8] = for at least 8 hours following drug administration
[9] = for at least 10 hours following drug administration
[10] = used for the estimate of percent inhibition

Chain of COX-1 (Homo sapiens, UniProt P23219) (P23219 24-599): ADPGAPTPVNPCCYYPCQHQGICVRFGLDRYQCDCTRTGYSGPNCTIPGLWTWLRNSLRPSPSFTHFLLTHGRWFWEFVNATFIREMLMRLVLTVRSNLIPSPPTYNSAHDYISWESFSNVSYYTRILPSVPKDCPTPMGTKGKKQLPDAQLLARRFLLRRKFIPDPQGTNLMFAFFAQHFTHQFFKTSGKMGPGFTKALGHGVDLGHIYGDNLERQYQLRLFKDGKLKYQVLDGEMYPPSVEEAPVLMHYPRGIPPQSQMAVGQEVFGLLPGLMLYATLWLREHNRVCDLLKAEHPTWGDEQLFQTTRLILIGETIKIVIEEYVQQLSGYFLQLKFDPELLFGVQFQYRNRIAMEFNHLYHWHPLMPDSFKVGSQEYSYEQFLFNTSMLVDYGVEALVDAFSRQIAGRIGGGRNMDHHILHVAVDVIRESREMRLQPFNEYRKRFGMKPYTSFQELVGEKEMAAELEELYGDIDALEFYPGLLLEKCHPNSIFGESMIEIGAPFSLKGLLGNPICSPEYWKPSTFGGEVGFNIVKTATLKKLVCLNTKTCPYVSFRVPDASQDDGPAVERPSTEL

concentration at 0 h ([1]; female, beagle, dog, plasma, 5.71 mg/eye, t=0, read-out: mean plasma level of ketorolac): 4.73 ± 1.46 ng/mL | concentration at 8 h ([1]; female, beagle, dog, retina, 5.71 mg/eye, eight hours post-procedure, intracameral OMS302 in BSS): 164 ± 39 ng/g | concentration at 0 h ([1]; female, beagle, dog, retina, 5.71 mg/eye, immediately following the end of IOL replacement (t=0), intracameral OMS302 in BSS, read-out: Ketorolac concentration in the retina): 1400 ± 1000 ng/g | half-life ([1]; female, beagle, dog, retina, 5.71 mg/eye, ketorolac after intracameral OMS302, read-out: retinal half-life (converted)): ~3.8 h | mean plasma level of ketorolac ([1]; t≥2 hours): undetectable | subjects with an undetectable concentration of ketorolac in the aqueous humor at the end of the surgical procedure [4]: 66.7%
SMILES: O=C(c1ccccc1)c1ccc2n1CCC2C(=O)O (racemic) [ketorolac, (+/−)-5-Benzoyl-2,3-dihydro-1H-pyrrolizine-1-carboxylic acid: 2-amino-2(hydroxymethyl)-1,3-propanediol (1:1)]
inhibition of COX-1 (COX-1 [2]; [7]): > 90% | inhibition of COX-1 in ocular tissues (COX-1 [2]; [8]): at least 90% | inhibition of COX-1 in ocular tissues (COX-1 [2]; [9]): at least 85% | estimated COX-1 inhibition (COX-1 [2]; t=0): 99.3% | estimated COX-1 inhibition (COX-1 [2]; t=8 hours): 98.4% | mean percent inhibition of COX-1 (COX-1 [2]; retinal tissue, t=10 hours, standard deviation 0.36%): 97.74% | inhibition of COX-2 (COX-2 [3]; [7]): > 90% | inhibition of COX-2 in ocular tissues (COX-2 [3]; [8]): at least 90% | inhibition of COX-2 in ocular tissues (COX-2 [3]; [9]): at least 85% | estimated COX-2 inhibition (COX-2 [3]; t=0): 96.0% | estimated COX-2 inhibition (COX-2 [3]; t=8 hours): 91.1% | IC50 (COX-1 [5]; published value): 20 nM | Ki (COX-1 [5]; [10]): 10 nM | IC50 (COX-2 [6]; published value): 120 nM | Ki (COX-2 [6]; [10]): 60 nM | inhibition of PGE2 (PGE2 production): greatest inhibition
